According to US20170269061A1, “METHOD FOR ASSESSING SENSITIVITY OF A TARGET DRUG IN VITRO AND A BIOMARKER USED THEREOF” (Tunghai University, priority 2016, published 2017):

What was measured:
[1] = test system: MDA-MB-231, SKBR-3 and BT-474 cells; experiment: Phase contrast observation of treated cells (Cell Experiment II); format: cell-based; details: 1 μg/ml paclitaxel, 72 hour; compared with 10 μg/ml trastuzumab and 1 μg/ml T-DM1
[2] = test system: SKBR-3 cells; experiment: Immunofluorescence microscopy of drug localization (Cell Experiment I); format: cell-based; details: T-DM1 1 μg/ml or trastuzumab 10 μg/ml for 30 min, co-staining with caveolin-1
Procedure: (§1) After washing, each of the cells was fixed with 3.7% formaldehyde and permeabilized with 0.1% Triton-X 100. The fixed cells were incubated with rabbit anti-caveolin-1 antibody (1:100 dilution in PBS/0.1% Triton-100/3% BSA) at room temperature for 1 hour and then incubated with Cy3-conjugated anti-rabbit secondary antibodies (1:200 dilution in PBS/0.1% Triton-100/3% BSA) at room temperature for 1 hour.

[3] = test system: BT-474 cells; experiment: as above; format: cell-based; details: T-DM1 1 μg/ml or trastuzumab 10 μg/ml for 30 min
Procedure: as §1

[4] = test system: SKBR-3 cells; details: 1 μg/ml T-DM1 vs 10 μg/ml trastuzumab, 72 hour, p<0.01
Procedure: After culturing each of the cells under different condition in example 7, 0.1 ml of 0.4% trypan blue and deionized water (1:1) was added. Dead cells were stained blue, while live cells remained unstained. Therefore, the number of dead cells could be estimated and cell viability estimated with a hemocytometer. Wherein, the cell mortality was expressed as the percentage of trypan blue-positive cells compared to the total number of cells and the viability percentage was presented by the number of live cells divided by the number of untreated control cells×100.

[5] = test system: SKBR-3 cells
Procedure: Pro-survival protein Bcl-2 expression in each of the cells, culturing under different condition in example 7 at 48 hours, were determined by Western blot.
Using an annexin V detection kit (Invitrogen, ThermoFisher, Waltham, Mass., USA) to label cell surface phosphatidylserine of apoptotic cells and analysis these stained cells by flow cytometry. […] Co-staining images were taken by inverted fluorescence microscope shown in FIG. 15, wherein green color indicates annexin V positive apoptotic cell, red color indicates PI positive necrotic cell. Annexin V stained cells with PI positive staining were excluded as necrotic cells, apoptotic cells with only annexin V staining were counted and divided by total cells as the percentage of apoptosis. […] And, annexin V positive/PI negative apoptosis in FIG. 15 was quantified.

[6] = test system: SKBR-3 cells; details: SKBR-3 with caveolin-1 siRNA; T-DM1 72 hours; p<0.05
Procedure: BT-474 cells were grown on plates in normal growth medium without antibiotics, and Lipofectamine 2000 transfection reagent (Invitrogen, ThermoFisher, Waltham, Mass., USA) was used to induce GFP-tagged caveolin-1 (Addgene, Cambridge, Mass., USA) overexpression. Caveolin-1siRNA (Dharmacon, GE health care, Lafayette, Colo., USA) was used in the knockdown experiment in SKBR-3 cells.

Molecule | cytotoxicity (phase contrast) [1] | localization of drug in cells [2] | localization of drug in cells [3] | cell sensitivity (cell viability) versus trastuzumab [4] | Bcl-2 expression level ([5]; 1 μg/ml T-DM1, 48 hours, Western blot) | drug sensitivity (cell viability) with pan-caspase inhibitor Z-VAD-FMK ([5]; 1 μg/ml T-DM1 plus Z-VAD-FMK) | necrotic cells (PI staining) ([5]; T-DM1 treated) | percentage of apoptosis (annexin V) ([5]; T-DM1 treated) | T-DM1 efficacy on CAV-1 knockdown [6]
CC(=O)O[C@H]1C(=O)[C@@]2(C)[C@H]([C@H](OC(=O)c3ccccc3)[C@]3(O)C[C@H](OC(=O)[C@H](O)[C@@H](NC(=O)c4ccccc4)c4ccccc4)C(C)=C1C3(C)C)[C@]1(OC(C)=O)CO[C@@H]1C[C@@H]2O [paclitaxel] | most cytotoxicity |  |  |  |  |  |  |  | 
trastuzumab emtansine [T-DM1] |  | colocalized in the SKBR-3 cell membrane and cytosol | localized only in the cell membrane | significantly more sensitive | lower level of Bcl-2 | decreased | fewer necrotic cells | increased percentage of apoptosis | significantly reduced T-DM1 efficacy
